What was measured:
[1] = qualitative statement; cited from earlier work
DNA topoisomerase I = conditions: background statement; cited from earlier work
[2] = tested on: non-small cell lung carcinoma; test: clinical response, second patient with non-small cell lung carcinoma; assay type: in vivo, human
[3] = stability of diluted topotecan solutions in plastic bags at room temperature (percentage of initial topotecan remaining); assay type: physicochemical; conditions: 0 hrs
Description: Stability--Shelf life surveillance of the intact vials is ongoing. Because the single-use lyophilized dosage form contains no antibacterial preservatives, it is advised that the reconstituted solution be discarded eight hours after initial entry into the vial. Further dilutions of the reconstituted solution to concentrations of 0.02 mg/ml and 0.1 mg.ml in 5% Dextrose Injection, USP, ("D5W") or 0.9% Sodium Chloride Injection, USP, ("NS") in plastic bags stored at room temperature yielded the following stability results:
PERCENTAGE OF INITIAL TOPOTECAN REMAINING IN SOLUTION

[4] = tested on: non-small cell lung carcinoma; test: clinical response, patient with metastatic non-small cell lung carcinoma, tumor size by CAT scan; assay type: in vivo, human; conditions: for response to pretreatment: pretreatment with VP-16 (etoposide) and cisplatin, same patient before topotecan
Description: One human patient with metastatic non-small cell lung carcinoma, who was refractory to pretreatment with VP-16 (etoposide) and cisplatin, received a course of therapy comprising intravenous administration of 1.5 mg of topotecan/m^2 of body surface area per day for five consecutive days. This course of therapy was repeated at least five more times at twenty-one day intervals (from the date of initiation of therapy) for a total of at least […] treatments. Tumor size regression was evaluated by CAT (computerized axial tomography) scan.

CC[C@@]1(O)C(=O)OCc2c1cc1n(c2=O)Cc2cc3c(CN(C)C)c(O)ccc3nc2-1 [topotecan, (S)-9-dimethylaminomethyl-10-hydroxycamptothecin]
water solubility [1]: water-soluble
inhibition of topoisomerase I (DNA topoisomerase I): specific inhibitor of DNA topoisomerase I
response (measurable tumor size regression) ([2]; one patient, prior radiation and ipomeanol, at least one course i.v. 1.5 mg/m^2 per day, five consecutive days): a temporary response (measurable tumor size regression) was observed
Percentage of initial topotecan remaining in solution ([3]; D5W, 0.02 mg/ml): 100.00%
Percentage of initial topotecan remaining in solution ([3]; D5W, 0.1 mg/ml): 100.00%
Percentage of initial topotecan remaining in solution ([3]; NS, 0.02 mg/ml): 100.00%
Percentage of initial topotecan remaining in solution ([3]; NS, 0.1 mg/ml): 100.00%
tumor size regression (CAT scan) ([4]; one patient refractory to VP-16 and cisplatin, i.v. 1.5 mg/m^2 per day, five consecutive days, repeated at twenty-one day intervals, after six treatment regimen): a complete regression of the disease was observed

N.N.[Cl][Pt][Cl] [cisplatin]
response to pretreatment [4]: refractory

COc1cc([C@@H]2c3cc4c(cc3[C@@H](O[C@@H]3O[C@@H]5CO[C@@H](C)O[C@H]5[C@H](O)[C@H]3O)[C@H]3COC(=O)[C@H]23)OCO4)cc(OC)c1O [etoposide]
response to pretreatment [4]: refractory

CC(O)CCC(=O)c1ccoc1 (stereo not drawn) [ipomeanol, reference compound]
response to previous ipomeanol ([2]; same patient before topotecan): failed to respond

CC[C@@]1(O)C(=O)OCc2c1cc1n(c2=O)Cc2cc3ccccc3nc2-1 [camptothecin, reference compound]
inhibition of topoisomerase I (DNA topoisomerase I): known to inhibit topoisomerase I
